Measured values: publication PMC7832085 (Journal of medicinal chemistry, 2016)

Key:
recombinant human TDP2 = target: T1, recombinant human TDP2 (Homo sapiens, UniProt O95551); assay: Recombinant TDP2 assay; type: biochemical; conditions: for Inhibition of recombinant TDP2 (in words): recombinant human TDP2, concentrations up to 111 μM
T1 sequence (O95551 1-362): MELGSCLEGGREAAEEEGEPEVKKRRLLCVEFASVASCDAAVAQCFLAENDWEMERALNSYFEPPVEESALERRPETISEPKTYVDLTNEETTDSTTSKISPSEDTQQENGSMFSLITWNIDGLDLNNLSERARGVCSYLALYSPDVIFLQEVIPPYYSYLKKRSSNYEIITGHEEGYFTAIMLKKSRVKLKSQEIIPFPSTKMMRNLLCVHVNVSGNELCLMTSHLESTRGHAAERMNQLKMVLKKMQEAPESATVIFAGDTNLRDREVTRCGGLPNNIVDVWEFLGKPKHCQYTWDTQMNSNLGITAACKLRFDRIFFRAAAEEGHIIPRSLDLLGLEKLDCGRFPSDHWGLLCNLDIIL

hTDP2 DT40 cells = type: cell-based; conditions: different concentrations of EPT
TDP1 = TDP1 (Homo sapiens, UniProt Q9NUW8); assay: TDP1 counter assay; type: biochemical; conditions: highest testing concentration 111 μM
Chain of TDP1 (Q9NUW8 whole entry): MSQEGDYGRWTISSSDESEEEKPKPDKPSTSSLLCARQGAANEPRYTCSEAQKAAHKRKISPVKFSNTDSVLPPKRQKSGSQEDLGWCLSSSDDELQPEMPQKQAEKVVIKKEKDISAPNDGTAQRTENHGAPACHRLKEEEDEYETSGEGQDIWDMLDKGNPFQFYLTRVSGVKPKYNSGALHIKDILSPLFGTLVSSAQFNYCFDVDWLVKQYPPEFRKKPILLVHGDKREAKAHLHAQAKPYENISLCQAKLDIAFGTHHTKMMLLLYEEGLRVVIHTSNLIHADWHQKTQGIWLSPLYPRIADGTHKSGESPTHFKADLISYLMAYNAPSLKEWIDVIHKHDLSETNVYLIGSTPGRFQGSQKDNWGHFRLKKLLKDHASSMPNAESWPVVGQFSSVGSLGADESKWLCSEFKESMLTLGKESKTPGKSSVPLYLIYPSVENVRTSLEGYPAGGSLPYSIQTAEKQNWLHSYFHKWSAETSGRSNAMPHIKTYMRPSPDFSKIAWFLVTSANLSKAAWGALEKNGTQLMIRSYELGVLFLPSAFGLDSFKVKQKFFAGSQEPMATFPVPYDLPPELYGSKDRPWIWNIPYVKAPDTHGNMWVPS

[1] = target: T2, human TDP2 (hTDP2) whole cell extracts (Homo sapiens, UniProt O95551); assay: Whole cell extract; type: biochemical
T2 sequence (O95551 1-362): T1 sequence (O95551 1-362)

O=C1Cc2c(cccc2-c2cccc([N+](=O)[O-])c2)C(=O)N1 [Compound 58, 5-(3-Nitrophenyl)isoquinoline-1,3(2H,4H)-dione]
Inhibition of recombinant TDP2 (in words) (recombinant human TDP2): inactive

O=C1Cc2cc(-c3ccco3)ccc2C(=O)N1 [Compound 43, 6-(Furan-2-yl)isoquinoline-1,3 (2H,4H)-dione]
Synergy in combination with ETP (hTDP2 DT40 cells): not observed | Inhibition of TDP1 (counter assay) (TDP1): no inhibition | IC50 (recombinant human TDP2): 8.5 µM

O=C1Cc2c(cccc2-c2ccco2)C(=O)N1 [Compound 45, 5-(Furan-2-yl)isoquinoline-1,3(2H,4H)-dione]
Inhibition of recombinant TDP2 (in words) (recombinant human TDP2): inactive

O=C1Cc2cc(I)ccc2C(=O)N1 [Compound 36, 6-Iodoisoquinoline-1,3(2H,4H)-dione]
Synergy in combination with ETP (hTDP2 DT40 cells): not observed

O=C1Cc2cccc(-c3cccc([N+](=O)[O-])c3)c2C(=O)N1 [Compound 57, 8-(3-Nitrophenyl)isoquinoline-1,3(2H,4H)-dione]
Inhibition of recombinant TDP2 (in words) (recombinant human TDP2): substantially reduced inhibitory activity

O=C1Cc2c(Br)cccc2C(=O)N1 [Compound 34, 5-Bromoisoquinoline-1,3(2H,4H)-dione]
Inhibition of recombinant TDP2 (in words) (recombinant human TDP2): inactive

O=C1Cc2ccc(C(=O)O)cc2C(=O)N1 [Compound 40, 1,3-Dioxo-1,2,3,4-tetrahydroisoquinoline-7-carboxylic Acid]
Synergy in combination with ETP (hTDP2 DT40 cells): not observed

O=C1Cc2cc(-c3ccco3)ccc2C(=O)N1O [Compound 46, 6-(Furan-2-yl)-2-hydroxyisoquinoline-1,3(2H,4H)-dione]
Inhibition of endogenous TDP2 in WCE (in words) [1]: inactive | Inhibition of recombinant TDP2 (in words) (recombinant human TDP2): inactive

O=C1Cc2cccc(-c3cccc(O)c3)c2C(=O)N1 [Compound 53, 8-(3-Hydroxyphenyl)isoquinoline-1,3(2H,4H)-dione]
Inhibition of recombinant TDP2 (in words) (recombinant human TDP2): substantially reduced inhibitory activity

O=C1Cc2cc(-c3nc4ccccc4s3)ccc2C(=O)N1 [Compound 84]
Synergy in combination with ETP (hTDP2 DT40 cells): not observed
